The source of these data is patent publication US7205285B2, “Acyl phosphonate inhibitors of β-lactamases” (Methylgene, Inc., priority 1997, dated 2007).

SMILES strings stand for the structures.

Data set [1] addresses T1, Enterobacter cloacae P99 β-lactamase (Enterobacter cloacae, UniProt P05364).
T1 construct: purchased Porton Down, Wiltshire, U.K
Format: biochemical. The settings on record: values in parentheses, second order rate constant for inhibition. The procedure: To evaluate the inhibitors and the methods of the invention, representative inhibitors preparations were tested using class A (TEM-2 plasmid TEM)) β-lactamase and class C (Enterobacter cloacae P99 β-lactamase) β-lactamases (Porton Down, Wiltshire, U.K.) as well as representative DD-peptidases/carboxydases (e.g., Streptomyces R61 DD-peptidases) as the assayed enzyme.
Steady state kinetic parameters were directly obtained for representative inhibitors with the P99 β-lactamase with TEM β-lactamase by standard methods (e.g., Wilkinson, Biochem J. 80:324–332 (1989)) from spectrophotometric initial velocity measurements. Kinetic parameters were also obtained for DD-peptidase as the assayed enzyme, according to standard methods using hyppuryl-DL-phenyl-lactate (a known DD-peptidase substrate) (e.g. Govardhan and Pratt, Biochemistry 26:3385–3395 (1987)). The concentration of stock enzyme solutions were determined spectrophotometrically (e.g., Xu, et al., Biochemistry 35:[…] (1996)).
Representative class C and a class A β-lactamases were inhibited by representative inhibitors of Formulae I and II in a time-dependent fashion as described by the relation:
Representative inhibitors of the invention having Formula I may act by forming a covalent bond between β-lactamases and the inhibitor (i.e., irreversible inhibition). This type of inhibition is therefore time dependent. It is distinguished from reversible inhibition in so far that the backward reaction is extremely slow. […] Thus, irreversible inhibition is measured by how fast the event takes place (rate constant ki). Thus, inhibitory efficiency is expressed by large ki values.
Representative inhibitors of Formula I may also act by forming a transient acyl-enzyme intermediate. Inhibition results from a slow turn over, (de-acylation) of the intermediate.
In Table 3, kcat/km values are presented in plain text, with ki values for representative inhibitors appearing in parentheses. […]

Data set [2] can be described thus: Spontaneous hydrolysis in neutral aqueous solution. In kind it is physicochemical. Conditions: for spontaneous hydrolysis, in words: neutral aqueous solution, relative to most compounds of the invention. As to the method:
The cyclic phosphoryl chloride (500 mg; 2.3 mmol) was suspended in 60 mL of anhydrous acetonitrile (Aldrich, Sure/Seal) and water (41 μL, 2.3 mmol) added with magnetic stirring. The mixture was then gently warmed until the crystals of the starting material disappeared (ca. 5 min.). Two molar equivalents of redistilled dicyclohexylamine (913 μL) were then added. The immediately precipitating solid ([…]) was removed by vacuum filtration and the remaining solvent by rotary evaporation.

The target of data set [3] is TEM-2 plasmid (TEM) β-lactamase (Escherichia coli, UniProt P62593, Q37K). Format: biochemical. The settings on record: values in parentheses.
The test system of another data set is Staph. Aureaus. In words: Microbiological testing: potentiation of β-lactam antibiotic. Format: cell-based. The settings on record: Piperacillin, compound at 100 μg/mL. The source says: (§1) To test the inhibitors of the invention, a wide range of organisms are used to assess compounds according to the invention; both as antibiotics and as β-Lactamase inhibitors: Initial screening for antibiotic activity utilizes penicillin sensitive S. aureus [ATTC# 25923], ampicillin sensitive H. influenzae [ATCC#10211] and clinical laboratory isolates of ampicillin sensitive E. faecalis and H. influenzae, and non-resistant P. aeruginosa. Initial studies utilize, in microtiter wells, 1 microgram of compound in 10 microliters diluted stock solution, 41,100 CFU of bacteria in 10 microliters broth solution and 80 microliters CAMHB. The count verification well contains 10 microliters CAMHB in place of the test compound. […] Microbiological and enzymatic testing is carried on duplicate plates with negative control plates.
(§2) Compounds were tested at a concentration of 100 μg/mL.
(§3) In Table 5, the microorganism tested against is shown in italics, while the antibiotic agent used is shown in plain text. […] When determined, the number in parentheses indicates the fold reduction in the MIC of the antibiotic agent when measured in the presence of the inhibitor of the invention.

A further data set concerns Ent. Cloacae. Described as above. In kind it is cell-based. Conditions: compound at 100 μg/mL.
Description: as §1, §2, §3

The subject of another data set is Haemophilus Influenzae. Described as above. Format: cell-based. Conditions: Ticarcillin, compound at 100 μg/mL.
Description: as §1, §2, §3

Data set [4] deals with T1, Enterobacter cloacae P99 β-lactamase. In words: Inhibition of P99 β-lactamase, nitrocefin assay (IC50). Format: biochemical. Conditions: nitrocefin substrate, 20 mM MOPS pH 7.50. The procedure:
The enzyme (Enterobacter cloacae P99 β-lactamase) was dissolved to a concentration of 1 mg/mL in 20 mM MOPS buffer at pH 7.50, and then diluted 200-fold in the same buffer containing 0.1% BSA. The commercially available substrate nitrocefin was added as a 100 μM stock solution in 20 mM MOPS buffer, and inhibitors were also added as solutions in MOPS buffer. In a typical assay the following amounts were used: 300 μL of nitrocefin, 10 μL of P99 β-lactamase, x μL of inhibitor, and […] of MOPS buffer. Enzyme activity was measured at 25 EC, and the reaction was monitored spectrophotometrically at 482 nm. IC50 values were determined from the dose-response plots of the initial reaction rate vs. inhibitor concentration.

Regarding `O=C(OP(=O)(O)c1ccc([N+](=O)[O-])cc1)c1ccccc1` [Compound XVIII], in data set [1], the ki was 0.0125(25 ± 3) s^−1 M^−1.
On to `O=C(Cc1ccccc1)NCC(=O)OP(=O)(O)Oc1ccccc1` [XXXII], for which, in data set [2], the “spontaneous hydrolysis, in words” value is recorded as “more rapidly hydrolyzed”.
Take `O=C(OP(=O)(O)Oc1ccccc1)c1ccc(-c2ccccc2)cc1` [Compound XXVII]: in data set [1], the ki was at most 3 s⁻¹ M⁻¹.
Same read-out and setting: with `O=C(OP(=O)(O)c1ccc(-c2ccccc2)cc1)c1ccccc1` [Compound XXI] the figure was 0.117(89 ± 4) s^−1 M^−1.
Still for that read-out and setting: with `O=C(OP(=O)(O)Oc1ccc2ccccc2c1)c1ccccc1` [Compound XXXI] the figure was at most 1 s⁻¹ M⁻¹.
For `O=C(NCP(=O)(O)OC(=O)c1ccccc1)OCc1ccccc1` [XXXIII], the ki result in data set [1] is “(5.9 ± 0.3 × 10^4) s^−1 M^−1”; in data set [3] it was “(130 ± 8) s^−1 M^−1”. In addition, the “spontaneous hydrolysis, in words” value in data set [2] is on record as “more rapidly hydrolyzed”.
As to `O=C1C=C(c2ccccc2)OP(=O)(O)O1` [Compound XVI], the “fold reduction in the MIC of the antibiotic agent” value with Staph. Aureaus was found to be 2 fold.
Take `COc1ccccc1C(=O)OP(=O)(O)Oc1ccccc1` [Compound XXIX]: the ki in data set [1] worked out at 3.6 ± 0.4 s⁻¹ M⁻¹.
Turning to `O=C(OP(=O)(O)Oc1ccccc1)c1cc2ccccc2s1` [Compound XXVI], the ki in data set [1] was at most 5 s⁻¹ M⁻¹.
Regarding `O=C1OP(=O)(O)Oc2ccccc21` [V, 1-hydroxy-4,5-benz-2.6-dioxaphosphorinanone-(3)-1-oxide], the “rate of hydrolysis kobs” value in data set [2] (20 mM MOPS, pH 7.5, 25° C.) was determined as 1.7e-05 s⁻¹.
As for `COP(=O)(O)OC(=O)c1ccccc1` [VIII], the “fold reduction in the MIC of the antibiotic agent” value in the data set on Ent. Cloacae (Cefoxitin) is reported as 2 fold; with Ent. Cloacae (Ceftriaxone), 2 fold; in the data set with Haemophilus Influenzae, 0 fold.
In the case of `O=C(OP(=O)(O)c1cccc([N+](=O)[O-])c1)c1ccccc1` [Compound XIX], the ki in data set [1] is given as 0.0179(65 ± 19) s^−1 M^−1.
Same read-out and setting: with `O=C(/C=C/c1ccccc1)OP(=O)(O)Oc1ccccc1` [Compound XXV] the figure was at most 1 s⁻¹ M⁻¹; with `CCCCCCP(=O)(O)OC(=O)c1ccccc1` [Compound XXII], 0.0226(11.1 ± 0.1) s^−1 M^−1.
With `O=C(OP(=O)(O)OC(=O)c1ccccc1)c1ccccc1` [XIV, sodium dibenzoyl phosphate], the ki in data set [3] is given as 0.120(14.3) s^−1 M^−1.
As for `O=C(Cc1ccccc1)OP(=O)(O)Oc1ccccc1` [Compound X], in data set [1], the ki is at most 0.04 s⁻¹ M⁻¹. Besides, the IC50 – broadly, the concentration that gives 50% inhibition – in data set [4] was 30 µM. In addition, in data set [2], the “spontaneous hydrolysis, in words” value is “shorter half-lives”.
Turning to `CCCCCCOP(=O)(O)OC(=O)c1ccccc1` [Compound XVII], the ki in data set [1] was 0.125(≦1) s^−1 M^−1.
Regarding `Cc1cccc(C)c1C(=O)OP(=O)(O)Oc1ccccc1` [Compound XXVIII], the ki entry in data set [1] was “(20.9 ± 1.5) s^−1 M^−1”.
As for `O=C(OP(=O)(O)c1ccc2ccccc2c1)c1ccccc1` [Compound XX], the ki in data set [1] was 0.0551(115 ± 5) s^−1 M^−1.
For the compound `O=C(OP(=O)(O)Oc1ccc([N+](=O)[O-])cc1)c1ccccc1` [Compound XI], the ki in data set [1] was at most 2 s⁻¹ M⁻¹. 39 µM corresponded to half-maximal inhibition in data set [4] (IC50).
On to `O=C(OP(=O)(O)Oc1ccccc1)c1ccccc1` [XIII, sodium benzoyl phenyl phosphate], for which, in data set [3], the ki is on record as 0.001(0.2) s^−1 M^−1.
Consider `O=C(OP(=O)(O)Oc1ccc2ccccc2c1)c1cc2ccccc2s1` [Compound XXX], for which the ki in data set [1] was 1813 ± 3 s⁻¹ M⁻¹.
In data set [4], `O=C(OP(=O)(O)Oc1cccc2ccccc12)c1ccccc1` [Compound XII] displayed an IC50 of 8 µM.
